Four molecules from patent US20210221866A1, “PROTEASE-RESISTANT LIPIDATED GLP-1 ANALOGS” (MEDIMMUNE LIMITED, priority 2015, published 2021) can be followed below.

Common to all, as to format: cell-based
Assay [1] addresses T1, human glucose-dependent insulinotropic peptide receptor (GIPR) (Homo sapiens, UniProt P48546).
T1 construct: expressed in transfected cells; host or cells: HEK293 cells or CHO cells
T1 sequence (P48546 22-466): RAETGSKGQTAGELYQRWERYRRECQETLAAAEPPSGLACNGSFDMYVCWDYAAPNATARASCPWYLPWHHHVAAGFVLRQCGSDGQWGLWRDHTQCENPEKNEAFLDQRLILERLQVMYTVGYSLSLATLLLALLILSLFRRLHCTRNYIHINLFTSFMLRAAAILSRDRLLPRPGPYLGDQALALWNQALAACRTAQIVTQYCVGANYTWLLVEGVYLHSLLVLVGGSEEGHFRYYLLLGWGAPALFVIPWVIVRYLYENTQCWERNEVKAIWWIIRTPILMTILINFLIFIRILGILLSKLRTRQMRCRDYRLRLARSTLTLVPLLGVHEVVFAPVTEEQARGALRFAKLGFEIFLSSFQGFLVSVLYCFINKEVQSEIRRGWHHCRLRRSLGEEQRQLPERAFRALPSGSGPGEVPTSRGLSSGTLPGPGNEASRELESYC
Nature of the assay: cAMP assay, human GIPR cells. The following applies: read-out: Primary assay EC50 GIP-R. In short, it runs like this: (§1)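 Peptide-stimulated cAMP measured by two-step HTRF after a 30 min room-temperature incubation with receptor-expressing cells (hGLP-1R, hGIPR at 1×10^5 cells/ml; hGCGR at 2×10^5 cells/ml). Duplicate dilutions; EC50 from 4-parameter logistic fit of % Delta F.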

Assay [2] has as its target T2, human glucagon receptor (GCGR) (Homo sapiens, UniProt P47871).
T2 construct: expressed in transfected cells; host or cells: HEK293 cells or CHO cells
Nature of the assay: cAMP assay, human GCGR cells. The following applies: read-out: Primary assay EC50 Gluc-R. In short, it runs like this: as §1

In assay [3] the target is T3, human GLP-1 receptor (GLP-1R) (Homo sapiens, UniProt P43220).
T3 construct: expressed in transfected cells; host or cells: HEK293 cells or CHO cells
T3 sequence (P43220 24-463): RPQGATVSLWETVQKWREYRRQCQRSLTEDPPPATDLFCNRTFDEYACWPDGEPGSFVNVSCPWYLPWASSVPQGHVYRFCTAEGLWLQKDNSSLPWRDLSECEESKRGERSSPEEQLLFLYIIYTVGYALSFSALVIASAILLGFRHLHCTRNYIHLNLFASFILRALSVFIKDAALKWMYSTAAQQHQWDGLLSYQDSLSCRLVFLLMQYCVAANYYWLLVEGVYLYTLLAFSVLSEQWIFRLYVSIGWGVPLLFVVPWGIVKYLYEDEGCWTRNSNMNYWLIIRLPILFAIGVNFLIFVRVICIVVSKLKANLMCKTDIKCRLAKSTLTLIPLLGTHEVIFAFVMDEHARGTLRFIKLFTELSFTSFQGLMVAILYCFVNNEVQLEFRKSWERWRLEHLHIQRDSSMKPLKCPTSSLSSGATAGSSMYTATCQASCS
Nature of the assay: cAMP assay, human GLP-1R cells. The following applies: for EC50: mean of n1 and n2, read-out: Mean pM GLP-1R. An outline of the steps:
as §1

Assay [4] deals with T4, GLP-1R (INS1e cells) (Rattus norvegicus, UniProt P32301).
T4 construct: endogenous in cells; host or cells: INS1e cells
T4 sequence (P32301 22-463): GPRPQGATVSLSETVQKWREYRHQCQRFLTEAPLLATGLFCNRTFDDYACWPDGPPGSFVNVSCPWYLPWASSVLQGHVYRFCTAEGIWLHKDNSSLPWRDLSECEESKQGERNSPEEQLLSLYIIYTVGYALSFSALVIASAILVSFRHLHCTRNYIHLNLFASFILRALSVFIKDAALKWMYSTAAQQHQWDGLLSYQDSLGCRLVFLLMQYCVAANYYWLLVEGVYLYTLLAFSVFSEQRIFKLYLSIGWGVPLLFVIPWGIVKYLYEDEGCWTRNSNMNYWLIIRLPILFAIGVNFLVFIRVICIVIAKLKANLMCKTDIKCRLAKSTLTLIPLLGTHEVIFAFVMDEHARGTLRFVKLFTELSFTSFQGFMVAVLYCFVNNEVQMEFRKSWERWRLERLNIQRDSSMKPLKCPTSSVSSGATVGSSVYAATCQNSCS
The assay is described as follows: INS1e assay, cAMP activity at GLP-1R. Conditions: Table 8, substituted and mono-lipidated peptides; for EC50: mean of n1 and n2, read-out: INS1e assay EC50 Mean pM GLP-1R.

Setting [5] is: cAMP activity, first determination (n1).
Setting [6] is: cAMP activity, second determination (n2).
Where [7] appears, read: cAMP activity, first determination (n1), read-out: Primary assay EC50 GLP-1R n1.
The mark [8] stands for this setting: cAMP activity, second determination (n2), read-out: Primary assay EC50 GLP-1R n2.
[9] abbreviates: replicate n1, read-out: INS1e assay EC50 GLP-1R n1.
[10] abbreviates: replicate n2, read-out: INS1e assay EC50 GLP-1R n2.

pEC50: −log10 of the molar value. Where two headings read alike, the source gives them in different places. Numbered stars: 1 amine (or outer) side, 2 acyl side, 3 side chain; on linkers, the order of the positions; unused ones are H or OH. Square brackets hold non-standard residues; d marks the D form. Side chains are listed from the residue outwards. Peptide text beside a SMILES is read from it. * marks the point of attachment. C18 diacid = O=C(O)CCCCCCCCCCCCCCCCC(=O)*; γGlu = O=C(O)[C@H](CCC(=O)[*:2])N[*:1]; αMeF = C[C@](N)(Cc1ccccc1)C(=O)O; αMeK = C[C@](N)(CCCCN)C(=O)O; αMeS = C[C@](N)(CO)C(=O)O; AEEA = NCCOCCOCC(=O)O; Aib = CC(C)(N)C(=O)O

T2 sequence (P47871 26-477): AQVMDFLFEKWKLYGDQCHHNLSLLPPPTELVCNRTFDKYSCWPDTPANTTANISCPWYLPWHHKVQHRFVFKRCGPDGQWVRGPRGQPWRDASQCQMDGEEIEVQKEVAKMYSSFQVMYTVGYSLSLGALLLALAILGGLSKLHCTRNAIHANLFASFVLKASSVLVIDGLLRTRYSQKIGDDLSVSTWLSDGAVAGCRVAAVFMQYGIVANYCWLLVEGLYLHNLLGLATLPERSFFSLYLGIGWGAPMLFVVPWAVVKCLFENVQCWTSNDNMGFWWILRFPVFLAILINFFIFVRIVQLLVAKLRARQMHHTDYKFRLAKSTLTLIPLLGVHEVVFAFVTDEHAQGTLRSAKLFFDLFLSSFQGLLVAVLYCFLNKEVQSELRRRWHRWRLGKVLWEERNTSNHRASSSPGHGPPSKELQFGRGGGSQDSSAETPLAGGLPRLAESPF

As to `CC[C@H](C)[C@H](NC(=O)[C@](C)(Cc1ccccc1)NC(=O)[C@H](CCC(=O)O)NC(=O)[C@](C)(CCCCN)NC(=O)[C@H](C)NC(=O)[C@H](C)NC(=O)[C@H](CCC(=O)O)NC(=O)CNC(=O)[C@H](CCC(=O)O)NC(=O)[C@H](CC(C)C)NC(=O)[C@](C)(Cc1ccccc1)NC(=O)[C@H](CO)NC(=O)[C@](C)(CO)NC(=O)[C@@H](NC(=O)[C@H](CC(=O)O)NC(=O)[C@H](CO)NC(=O)[C@@H](NC(=O)[C@](C)(Cc1ccccc1)NC(=O)[C@H](CO)NC(=O)CNC(=O)[C@H](CCC(=O)O)NC(=O)C(C)(C)NC(=O)[C@@H](N)Cc1c[nH]cn1)[C@@H](C)O)C(C)C)C(=O)N[C@@H](CCCCNC(=O)COCCOCCNC(=O)COCCOCCNC(=O)CC[C@H](NC(=O)CCCCCCCCCCCCCCCCC(=O)O)C(=O)O)C(=O)N[C@@](C)(Cc1ccccc1)C(=O)N[C@H](C(=O)N[C@H](C(=O)N[C@@](C)(CCCCN)C(=O)NCC(=O)NCC(N)=O)C(C)C)C(C)C` [compound 105] (H-H[Aib]EGS[αMeF]TSDV[αMeS]S[αMeF]LEGEAA[αMeK]E[αMeF]IK([AEEA-AEEA-γGlu-C18 diacid])[αMeF]VV[αMeK]GG-NH2; N-terminus assumed), the pEC50 in assay [1] (setting [5]) is not above 7.60; in assay [1] (setting [6]) it was not above 7.60; in assay [2] (setting [6]), not above 7.60; in assay [3] (setting [7]), 10.68; in assay [3] (setting [8]), 10.83; in assay [4] (setting [9]) it was 9.66. Besides, the negative-log EC50 (pEC50) in assay [4] (setting [10]) is 8.76. Moreover, the EC50 amounted to 18 pM in assay [3] (cAMP activity) and 970 pM in assay [4].
Regarding `CC[C@H](C)[C@H](NC(=O)[C@](C)(Cc1ccccc1)NC(=O)[C@H](CCC(=O)O)NC(=O)[C@](C)(CCCCN)NC(=O)[C@H](C)NC(=O)[C@H](C)NC(=O)[C@H](CCC(=O)O)NC(=O)CNC(=O)[C@H](CCC(=O)O)NC(=O)[C@H](CCCCNC(=O)COCCOCCNC(=O)COCCOCCNC(=O)CC[C@H](NC(=O)CCCCCCCCCCCCCCCCC(=O)O)C(=O)O)NC(=O)[C@](C)(Cc1ccccc1)NC(=O)[C@H](CO)NC(=O)[C@](C)(CO)NC(=O)[C@@H](NC(=O)[C@H](CC(=O)O)NC(=O)[C@H](CO)NC(=O)[C@@H](NC(=O)[C@](C)(Cc1ccccc1)NC(=O)[C@H](CO)NC(=O)CNC(=O)[C@H](CCC(=O)O)NC(=O)C(C)(C)NC(=O)[C@@H](N)Cc1c[nH]cn1)[C@@H](C)O)C(C)C)C(=O)N[C@@H](C)C(=O)N[C@@](C)(Cc1ccccc1)C(=O)N[C@H](C(=O)N[C@H](C(=O)N[C@@](C)(CCCCN)C(=O)NCC(=O)NCC(N)=O)C(C)C)C(C)C` [compound 115] (H-H[Aib]EGS[αMeF]TSDV[αMeS]S[αMeF]K([AEEA-AEEA-γGlu-C18 diacid])EGEAA[αMeK]E[αMeF]IA[αMeF]VV[αMeK]GG-NH2), the negative-log EC50 (pEC50) in assay [1] (setting [5]) is not above 7.60; in assay [1] (setting [6]) it was not above 7.60; in assay [2] (setting [6]), not above 7.60; in assay [3] (setting [7]), 11.22; in assay [3] (setting [8]) it was 11.27; in assay [4] (setting [9]) it was 9.23. Moreover, the pEC50 in assay [4] (setting [10]) is 9.31. Further, the EC50 was 6 pM in assay [3] (cAMP activity) and 544 pM in assay [4].
For the molecule `CCCCCCCCCCCC(=O)NCCOCCOCC(=O)NCCCC[C@H](NC(=O)[C@@H](NC(=O)[C@@H](NC(=O)[C@](C)(Cc1ccccc1)NC(=O)[C@H](C)NC(=O)[C@@H](NC(=O)[C@](C)(Cc1ccccc1)NC(=O)[C@H](CCC(=O)O)NC(=O)[C@](C)(CCCCN)NC(=O)[C@H](C)NC(=O)[C@H](C)NC(=O)[C@H](CCC(=O)O)NC(=O)CNC(=O)[C@H](CCC(=O)O)NC(=O)[C@H](CC(C)C)NC(=O)[C@](C)(Cc1ccccc1)NC(=O)[C@H](CO)NC(=O)[C@](C)(CO)NC(=O)[C@@H](NC(=O)[C@H](CC(=O)O)NC(=O)[C@H](CO)NC(=O)[C@@H](NC(=O)[C@](C)(Cc1ccccc1)NC(=O)[C@H](CO)NC(=O)CNC(=O)[C@H](CCC(=O)O)NC(=O)C(C)(C)NC(=O)[C@@H](N)Cc1c[nH]cn1)[C@@H](C)O)C(C)C)[C@@H](C)CC)C(C)C)C(C)C)C(=O)NCC(=O)NCC(N)=O` [compound 170], the pEC50 in assay [1] (setting [5]) is not above 7.55; in assay [1] (setting [6]), not above 7.55; in assay [2] (setting [6]), not above 7.55; in assay [3] (setting [7]), 11.10; in assay [3] (setting [8]) it was 11.35; in assay [4] (setting [9]), 9.26. Also, the negative-log EC50 (pEC50) in assay [4] (setting [10]) is 9.42. The EC50 in assay [3] (cAMP activity) was 6.2 pM; in assay [4] it was 462 pM.
In the case of `CC[C@H](C)[C@H](NC(=O)[C@](C)(Cc1ccccc1)NC(=O)[C@H](CCC(=O)O)NC(=O)[C@](C)(CCCCN)NC(=O)[C@H](C)NC(=O)[C@H](C)NC(=O)[C@H](CCC(=O)O)NC(=O)CNC(=O)[C@H](CCC(=O)O)NC(=O)[C@H](CC(C)C)NC(=O)[C@](C)(Cc1ccccc1)NC(=O)[C@H](CO)NC(=O)[C@](C)(CO)NC(=O)[C@@H](NC(=O)[C@H](CC(=O)O)NC(=O)[C@H](CO)NC(=O)[C@@H](NC(=O)[C@](C)(Cc1ccccc1)NC(=O)[C@H](CO)NC(=O)CNC(=O)[C@H](CCC(=O)O)NC(=O)C(C)(C)NC(=O)[C@@H](N)Cc1c[nH]cn1)[C@@H](C)O)C(C)C)C(=O)N[C@@H](C)C(=O)N[C@@](C)(Cc1ccccc1)C(=O)N[C@H](C(=O)N[C@H](C(=O)N[C@@H](CCCCNC(=O)COCCOCCNC(=O)COCCOCCNC(=O)COCCOCCNC(=O)CCCCCCCCCCCCCCCCC(=O)O)C(=O)NCC(=O)NCC(N)=O)C(C)C)C(C)C` [compound 199], the pEC50 was not above 7.60 in assay [1] (first replicate); not above 7.60 in assay [1] (second replicate (n2)); not above 7.60 in assay [2] (second replicate (n2)); 10.54 in assay [3] (replicate n1, read-out: Primary assay EC50 GLP-1R n1); 11.12 in assay [3] (replicate n2, read-out: Primary assay EC50 GLP-1R n2); 9.10 in assay [4] (setting [9]). The pEC50 in assay [4] (setting [10]) was 8.67. In addition, the EC50 in assay [3] was 18.3 pM; in assay [4], 1460 pM.
